Experimental data: patent US20200261398A1, “METHOD FOR FIRST-LINE TREATMENT OF ROSACEA” (Sol-Gel Technologies Ltd., priority 2019, published 2020)

How the values were obtained:
[1] = system: patients afflicted with papulopustular rosacea; test: Cutaneous Safety Assessment (dryness, scaling) and Local Tolerability Assessment (itching, burning/stinging), 12-week study of E-BPO 5% cream; assay type: in vivo, human; details: studies described herein
Description: Safety was assessed at all visits, and will include monitoring of local adverse experiences, Investigator Cutaneous Safety Assessment rating of dryness and scaling and Local Tolerability Assessment rating of itching and burning/stinging on a scale ranging from 0 (None) to 3 (Severe); patients complete a Patient Reported Outcomes (PRO) questionnaire at Visit 2, 3, 4, 5 and 6 and Rosacea Quality of Life Questionnaire (RosaQoL) at Baseline and Visit 6 or at early termination. Standardized photography of facial rosacea at Visit 2, 3, 4, 5 and 6 was performed at select site(s).
In addition to IGA, at each visit, the following safety measures were recorded: monitoring for any AE (adverse effects) including local and systemic; investigator Cutaneous Safety Assessment rating of erythema, dryness and scaling and Local Tolerability Assessments rating of itching and burning/stinging on a scale ranging from 0 (None) to 3 (Severe).
(§1) The first application of the test product was applied at the investigational site at the end of the Baseline visit (Day 0) under the supervision and instruction of the designated investigational site staff. […] The evaluator also assessed local application site irritation (dryness, scaling, pruritus, stinging and burning) at Baseline and Weeks 2, 4, 8 and 12 (end of study). […]

rosacea = details: BPO as the sole active agent (Gul 2008); cited from earlier work
[2] = system: patients afflicted with papulopustular rosacea; test: Investigator Global Assessment (IGA) success, 12-week vehicle-controlled study of E-BPO 5% cream; assay type: in vivo, human
Description: (§2) A multi-center, double-blind, randomized, vehicle-controlled, dose-range study of encapsulated 5% benzoyl peroxide (E-BPO) Cream and vehicle cream was performed to assess the efficacy and safety of E-BPO compared to vehicle. Study duration was 12 weeks and included approximately 350 male and female patients afflicted with papulopustular rosacea. Patients were at least 18 years of age, and met the inclusion/exclusion criteria described herein.
Patients were randomized in a 2:1 ratio to the study product or vehicle treatment group, respectively. […]
Patients were admitted into the study after meeting all inclusion/exclusion criteria, including a clinical diagnosis of rosacea and after written informed consent has been obtained. […] At each visit, a 5-point IGA scale of rosacea; rosacea erythema, and telangiectasia; and inflammatory (papules, pustules) lesion counts were performed and recorded.
as §1

[3] = system: patients afflicted with papulopustular rosacea; test: Inflammatory lesion (papules, pustules) count, 12-week vehicle-controlled study of E-BPO 5% cream; assay type: in vivo, human
Description: as §2
Patients were randomized in a 2:1 ratio to the study product or vehicle treatment group, respectively. Patients applied the study product once daily for 12 weeks on the face (chin, left cheek, right cheek, nose, left forehead and right forehead) in a thin layer to provide even distribution, and avoid the eyes, lips, inside the nose, mouth and all mucous membranes.
Patients were admitted into the study after meeting all inclusion/exclusion criteria, including a clinical diagnosis of rosacea and after written informed consent has been obtained. Subjects with severe rosacea who are appropriate for systemic treatment need to be counseled regarding their treatment options by the Principal Investigator. At each visit, a 5-point IGA scale of rosacea; rosacea erythema, and telangiectasia; and inflammatory (papules, pustules) lesion counts were performed and recorded.
The first application of the test product was applied at the investigational site at the end of the Baseline visit (Day 0) under the supervision and instruction of the designated investigational site staff. The investigator performed the Investigator Global Assessment (IGA) and inflammatory lesion (papules and pustules) counts at Screening, Baseline, and Weeks 4, 8, and 12 (end of study) and erythema and telangiectasia assessments at Baseline, and Weeks 4, 8, and 12 (end of study). The evaluator also assessed local application site irritation (dryness, scaling, pruritus, stinging and burning) at Baseline and Weeks 2, 4, 8 and 12 (end of study). At selected investigational site(s), standardized photography of facial rosacea also was performed at Baseline and Week 8 and 12 (end of study).
The absolute change (primary measure of success) and percent change (secondary measure of success) from baseline of inflammatory lesions was derived for each patient at Weeks 2, 4, 8 and 12. The IGA was recorded for each patient at Baseline, Weeks 2, 4, 8 and 12. Weeks 2, 4, 8 and 12 with a patient were considered a success for those visits if the IGA was at least 2 grades less than baseline and are Clear or Almost Clear. Data from two sets of experiments—Drug 01+Vehicle 01 and Drug 02+Vehicle 02—are included herewith for each measurement
The proportions of subjects with a secondary measure of success (defined as change in the mean inflammatory lesion count from Baseline to Weeks 2, 4, 8 and 12) are shown in Tables 2A, 2B, 3A and 3B, and FIGS. 2 and 3.

[4] = after at least 12 weeks of treatment

**Q.** What does the source list for `O=C(OOC(=O)c1ccccc1)c1ccccc1` [BPO, Benzoyl peroxide]?
**A.** percentage of patients reporting no subcutaneous reactions compared with vehicle [1]: comparable, and for some conditions, surprisingly, higher; response of lesions (rosacea): unresponsive; success in IGA ([2]; after 2 weeks of BPO-treatment): about 10%; success in IGA ([2]; after only 4 weeks of treatment): about 25%; decrease in inflammatory lesions [3, 4]: over 69%; decrease in inflammatory lesions relative to effect of vehicle cream [3, 4]: more than 1.5 ×; decrease in inflammatory lesions, on average ([3]; after only 2 weeks of treatment): about 40%; decrease in inflammatory lesions ([3]; in 4 weeks): over 58%; decrease in inflammatory lesions ([3]; in 8 weeks): about 70%
